# Test system: human KRAS G12D mutant-positive PK-59 pancreatic cancer cell line-derived xenograft
# Assay: Test Example 4: anti-tumor activity in PK-59 xenograft mice
# Type: in vivo
# Conditions: PK-59 xenograft nude mice, 10 mg/kg into tail vein, twice with an interval of once a week
# Experimental: Test Example 4: Evaluation of Anti-Tumor Activity in Human KRAS G12D Mutant-Positive PK-59 Pancreatic Cancer Cell Line-Derived Xenograft Mice
# PK-59 cells (RTKEN BRC, RCB 1901) were cultured using a RPMI 1640 medium containing 10% fetal bovine serum in the presence of 5% CO2 at 37° C. The PK-59 cells were collected and suspended in PBS, and after adding an equal amount of Matrigel (from Becton, Dickinson and Company), the cell suspension prepared at 1.0×10^7 to 2.0×10^7 cells/mL was subcutaneously inoculated in a volume of 100 μL in 4- to 6-week-old male nude mice (CAnN.Cg-Foxn1^nu/CrlCrlj (nu/nu), from Charles River Laboratories Japan). About two weeks after the inoculation, the mice were divided into groups so that all the groups had approximately the same tumor volume and body weight, and administration of test compounds was started on the next day. The study was conducted for 5 mice each of a vehicle group and test compound administration groups. The compounds of Example 8, Example 48 and Example 70 were dissolved in a solvent containing ethanol (from FUJIFILM Wako Pure Chemical Corporation), a 5% glucose solution (from Otsuka Pharmaceutical), 1M hydrochloric acid (from Kanto Chemical Co., Inc.), an aqueous 50% (2-hydroxypropyl)-β-cyclodextrin (HP-βCD) solution (from ROQUETTE), HCO-40 (from Nikko Chemicals Co., Ltd.) and an aqueous 1M sodium hydroxide solution (from Kanto Chemical Co., Inc.) at a liquid amount ratio of 4:84.4:1.1:1:9:0.5. The compounds of Example 22 and Example 26 were dissolved in a solvent containing propylene glycol (from FUJIFILM Wako Pure Chemical Corporation), Tween80 (from Nacalai Tesque) and Otsuka normal saline (from Otsuka Pharmaceutical) at a liquid amount ratio of 6.7:3.3:90. The compound of Example 39 was dissolved in a solvent containing propylene glycol, ethanol, an aqueous 50% HP-PCD solution, HCO-40 and a 5% glucose solution at a liquid amount ratio of 10:8:10:10:62. The test compounds dissolved in the respective solvents or the solvents were administered into tail vein. The administration was performed twice with an interval of once a week. The tumor sizes and the body weights were measured twice a week. The tumor volumes were calculated using the following equation.
# [Tumor volume (mm^3)]=[Major axis of tumor (mm)]×[Minor axis of tumor (mm)]^2×0.5
# The tumor growth inhibitions (%) by the test compounds were calculated with the tumor volumes of the test compound administration groups on the previous day of the start of the administration taken as 100% inhibition and the tumor volumes of the vehicle groups two weeks after the initial administration taken as 0% inhibition. In addition, when the tumor volume of a test compound administration group was smaller than the tumor volume on the previous day of the start of the administration, the tumor regression (%) by the test compound was calculated with the tumor volume on the previous day of the start of the administration taken as 0% regression and with the tumor volume 0 taken as 100% regression. The molecular weights of the test compounds were calculated as the molecular weights of the dihydrochloride for Example No. 22 and the free forms forming no salt for the remaining Example Nos. The results for some test compounds of the formula (I) are shown in Table 5.
Compound,Anti-Tumor Activity Two Weeks After Initial Administration (tumor growth inhibition),Anti-Tumor Activity Two Weeks After Initial Administration (tumor regression)
Cc1c(F)cc2[nH]ncc2c1-c1c(C2CC2)cc2c(N3C[C@@H]4C[C@H]3CN4)nc(OC3CCOCC3)nc2c1OCc1ccc(-c2cn([C@H](C(=O)N3C[C@H](O)C[C@H]3C(=O)N[C@@H](CO)c3ccc(-c4ccnn4C)cc3)C(C)C)nn2)cc1 [Example 22],93% inhibition,
CCn1nccc1-c1ccc([C@H](CO)NC(=O)[C@@H]2C[C@@H](O)CN2C(=O)[C@H](C(C)C)n2cc(-c3ccc(COc4c(-c5c(C)c(F)cc6[nH]ncc56)c(C5CC5)cc5c(N6C[C@@H]7C[C@H]6CN7)nc(OC[C@H](C)OC)nc45)cc3)nn2)cc1 [Example 70],,42% regression
"Cc1ncsc1-c1ccc([C@H](CO)NC(=O)[C@@H]2C[C@@H](O)CN2C(=O)[C@H](C(C)C)n2cc(-c3ccc(COc4c(-c5c(C)c(F)cc6[nH]ncc56)c(C5CC5)cc5c(N6C[C@@H]7C[C@H]6CN7)nc(OC6CCOCC6)nc45)cc3)nn2)cc1 [Example 8, (4R)-1-[(2S)-2-(4-{4-[({6-cyclopropyl-4-[(1S,4S)-2,5-diazabicyclo[2.2.1]heptan-2-yl]-7-(6-fluoro-5-methyl-1H-indazol-4-yl)-2-[(oxan-4-yl)oxy]quinazolin-8-yl}oxy)methyl]phenyl}-1H-1,2,3-triazol-1-yl)-3-methylbutanoyl]-4-hydroxy-N-{(1R)-2-hydroxy-1-[4-(4-methyl-1,3-thiazol-5-yl)phenyl]ethyl}-L-prolinamide]",98% inhibition,
CCn1nccc1-c1ccc([C@H](CO)NC(=O)[C@@H]2C[C@@H](O)CN2C(=O)[C@H](C(C)C)n2cc(-c3ccc(COc4c(-c5c(C)c(F)cc6[nH]ncc56)c(C5CC5)cc5c(N6C[C@@H]7C[C@H]6CN7)nc(OC6CCOCC6)nc45)cc3)nn2)cc1 [Example 26],94% inhibition,
CO[C@H](C)[C@@H](C)Oc1nc(N2C[C@@H]3C[C@H]2CN3)c2cc(C3CC3)c(-c3c(C)c(F)cc4[nH]ncc34)c(OCc3ccc(-c4cn([C@H](C(=O)N5C[C@H](O)C[C@H]5C(=O)N[C@@H](CO)c5ccc(-c6scnc6C)cc5)C(C)C)nn4)cc3)c2n1 [Example 39],,13% regression
CO[C@@H](C)COc1nc(N2C[C@@H]3C[C@H]2CN3)c2cc(C3CC3)c(-c3c(C)c(F)cc4[nH]ncc34)c(OCc3ccc(-c4cn([C@H](C(=O)N5C[C@H](O)C[C@H]5C(=O)N[C@@H](CO)c5ccc(-c6scnc6C)cc5)C(C)C)nn4)cc3)c2n1 [Example 48],,32% regression

# Source: patent US20250340561A1, “QUINAZOLINE COMPOUND FOR INDUCING DEGRADATION OF G12D MUTANT KRAS PROTEIN” (Astellas Pharma Inc., priority 2021, published 2025)
